“Also recorded” adds a separate entry of the source.
Key:
[1] = tested on: AMR Staphylococcus aureus LUH14616 persisters; experiment: Anti-persister experiment, antibiotics-exposed mature biofilm; format: cell-based; conditions: after 3 days rifampicin and ciprofloxacin, 24 hrs exposure, FIG. 25
Description: Experimental design. The capacity of AM-2 (Bis(4-chlorophenyl) disulfide) and AM-8 to reduce bacterial counts in mature biofilms was assessed as described earlier (Scheper et al (2021) Scheper H, Wubbolts J M, Verhagen J A M, de Visser A W, van der Wal RJJP, Visser L G, de Boer M J G, and Nibbering P H. SAAP-148 eradicates MRSA persisters within mature biofilm models simulating prosthetic joint infection. Front. Microbiol. 12:625952. Doi: 10.3389/fmicb.2021.625952. eCollection 2021) with one modification, i.e., the biofilms were exposed daily to the compounds for up to 4 consecutive days. Briefly, antimicrobial resistant (AMR) Staphylococcus aureus LUH14616 were cultured to mid-log phase in tryptic soy broth (TSB; Oxoid Ltd, Basingstoke, UK) at 37° C. and 200 rpm, centrifuged for 10 min at 3,000 rpm and then resuspended in brain heart infusion broth (BHI; Oxoid Ltd, Basingstoke, UK). Next, approximately 1×10^7 CFU bacteria in BHI were cultured in a 96-well flat-bottom polystyrene microplate sealed with breathable seal for 7 days. […] To take possible slow-growing bacteria into account we analyzed the bacterial plates again after a week. Results are expressed as the number of surviving bacteria (CFU/ml).

[2] = solubility observed when preparing stock solutions; format: physicochemical; conditions: in water / medium; stock of 2 mM feasible with Tween80 and DMSO
Description: (§1) Hereafter, the stock solutions of the compounds were used in three repetitions in a minimal inhibitory concentration (MIC) assay at a 2-fold dilution range with various bacteria from the gram-positive and gram-negative group and a yeast, Candida albicans. The concentrations that show only less than 10% growth after 24 h were considered the MIC90-values, whereas the concentrations that show 50% growth after 24 h when compared to the bacterial growth control were considered the MIC50-values. Escherichia coli and Staphylococcus aureus were used as representatives for a gram-negative bacteria and gram-positive bacteria, respectively. Furthermore, the yeast C. albicans was also tested.
Conclusion and discussion. […] With the addition of solvents like Tween80 and DMSO a stock solution in medium of 2 mM was feasible. This allowed a maximum of testing concentration of 1 mM. […] Therefore, with the application of solvents a maximum testing concentration of 0.575 mM was possible. If the real growth-inhibiting concentration (MIC90) lies above these maximum assay concentrations, then it would not be detected in this assay.

[3] = tested on: Staphylococcus aureus LUH14616 mature biofilms; experiment: Biofilm eradication assay, 7-day mature biofilms; format: cell-based; conditions: 7-day mature biofilm
Description: Biofilm eradication assay. The assay to reduce bacterial counts in mature biofilms was assessed as described earlier (Scheper H J, Wubbolts J M, Verhagen J A M, de Visser A W, van der Wal R J P, Visser L G, de Boer M J J G, and Nibbering P H. SAAP-148 eradicates MRSA persisters within mature biofilm models simulating prosthetic joint infection. Front. Microbiol. 12:625952. Doi: 10.3389/fmicb.2021.625952. eCollection 2021) with a single modification, i.e., the biofilms were exposed daily to AM-8 for up to 4 consecutive days. Briefly, approximately 1×10^7 CFU logarithmic phase bacteria in BHI were cultured in a 96-well flat-bottom polystyrene microplate sealed with breathable seal for 7 days. Next, mature biofilms were washed twice with PBS, then exposed for 24 hrs to AM-8 or as control the diluent of this compound. Hereafter the biofilms were washed and either re-exposed to AM-8/its diluent for another day or—in case of termination of the daily exposures-sonicated for microbiological quantification of the number of viable bacteria. Results are expressed as the number of surviving bacteria at the various days of exposure. Experiment was performed in triplicate.

[4] = tested on: Candida albicans Y01-19; experiment: MBC assay (Minimal Bactericide Concentration); format: cell-based; conditions: for effect at concentrations of growth inhibition (MIC90), C. albicans: MBC compared to MIC90; for MBC Candida albicans: Y01-19, n = 3, no colonies on agar plate after 20 h
Description: as §1
(§2) The Minimal Bactericide Concentration (MBC) of two compounds were determined, namely diisopropyl thiosulfonate and di-n-propyl thiosulfonate. […] This assay was performed per strain of E. coli, S. aureus, and C. albicans three independent times. Therefore, the standard deviation could also be calculated (Table 10).

[5] = tested on: Escherichia coli ATCC 25922; experiment: MBC assay (Minimal Bactericide Concentration); format: cell-based; conditions: for MBC Escherichia coli: ATCC 25922, n = 3, no colonies on agar plate after 20 h; for effect at concentrations of growth inhibition (MIC90), E. coli: MBC compared to MIC90
Description: as §1, §2

[6] = tested on: Staphylococcus aureus LUH 14616; experiment: MBC assay (Minimal Bactericide Concentration); format: cell-based; conditions: for MBC Staphylococcus aureus: LUH 14616, n = 3, no colonies on agar plate after 20 h; for effect at concentrations of growth inhibition (MIC90), S. aureus: higher MBC values compared to MIC90 values
Description: as §1, §2

[7] = listed as diisopropyl thiosulfonate Batch A
[8] = listed as diisopropyl thiosulfonate Batch C

SMILES	effect on persisters within antibiotics-exposed mature biofilm [1]	solubility (observed) [2]	bacterial counts in mature biofilms, multiple daily exposures ([3]; daily exposure up to 4 days, FIG. 24, listed as AM-8)	biofilm reducing effect of a single dose ([3]; dose range study, results not shown)	effect at concentrations of growth inhibition (MIC90), C. albicans [4]	MBC Candida albicans [4, 7]	MBC Candida albicans [4, 8]	MBC Escherichia coli [5]	effect at concentrations of growth inhibition (MIC90), E. coli [5]	MBC Staphylococcus aureus [6, 7]	MBC Staphylococcus aureus [6, 8]	effect at concentrations of growth inhibition (MIC90), S. aureus [6]	MBC Candida albicans [4]	MBC Staphylococcus aureus [6]
Clc1ccc(SSc2ccc(Cl)cc2)cc1 [Bis (4-chlorophenyl) disulfide, Bis(4-chlorophenyl) disulfide]	at the highest dose was effectively against persisters	low solubility	–	–	–	–	–	–	–	–	–	–	–	–
CC(C)SS(=O)(=O)C(C)C [Di-isopropyl thiosulfonate]	–	–	dose-dependently significantly reduced the bacterial counts in mature biofilms; also recorded: able to eliminate all bacteria within biofilms	increased in time without fully eradicating the bacteria within the biofilm	bactericidal effect	75 µM	50 µM	219 µM	bactericidal effect	1500 µM	1833 µM	bacteriostatic effect	–	–
CCCSS(=O)(=O)CCC [Di-n-propyl thiosulfonate, reference compound]	–	–	–	–	bactericidal effect	–	–	208 µM	bactericidal effect	–	–	bacteriostatic effect	25 µM	1083 µM
